The subject of one series is monocytes. Nature of the series: Tubing loop model, monocyte activation by flow cytometry (CD14/CD11b). The note with it: anti-platelet agent in combination with NM4047. The series is classed as cell-based, human. The method, then:
(§1) In the following examples, heparinized whole blood from a donor volunteer was circulated in a PVC tubing at 37° C. to allow complement and cellular activation. It is known that alternative complement pathway is activated when blood comes in contact with the artificial surface of the PVC tubing. As a result, complement is activated to release inflammatory molecules. These inflammatory molecules activate neutrophils, monocytes and platelets. The monoclonal antibody NM4047, inhibits complement activation in vitro in human serum. NM4047 inhibits C3a, C5a, and C5b-9 in whole blood in the tubing loop model. […] We attributed these findings to the Fc region on the IgG1. Removal of Fc domain with Ficin generated an F(ab′)2 molecule which inhibited C3a, C5a, C5b-9.
(§2) NM4047 is an IgG1 monoclonal antibody that was identified as a blocker of alternative complement pathway activation. The monoclonal antibody was evaluated for inhibition of complement and cellular activation in a whole blood based extracorporeal circulation model. In this model, whole heparinzed human blood was diluted with plasmalyte and circulated in a PVC tubing loop for 2 h at 37° C. to allow complement activation to occur. A total of 21 tubing loops were prepared. […] Nine tubing loops received 400 μg/ml concentration of NM4047 and the other nine received 100 μg/ml concentration of NM4047. Tubing loops were then rotated for 2 h at 37° C. Following the rotation, aliquots of the blood were stained for flow cytometry for the evaluation of cellular activation. A separate aliquot of blood was centrifuged to separate plasma, which was used for measuring complement activation products in ELISA. […] Cellular activation was evaluated using flow cytometry methods. […] Cell populations were read in the BD-LSR 1 and Cell Quest software. The raw data taken from Cell Quest were analyzed using Win List software from Verity, populations were measured using Ln Median shifts in the activation marker in the case of neutrophils and monocytes, and population percentage shifts for platelets. […]
(Flow cytometry measures light scatter and fluorescence of single cells or particles in a stream.)

A further series has as its system neutrophils. In words: Tubing loop model, neutrophil activation by flow cytometry (CD15/CD11b). The series is classed as cell-based, human. Conditions: anti-platelet agent in combination with NM4047. The method, then: as §1, §2
The test system of another series is platelets. In words: Tubing loop model, platelet activation by flow cytometry (CD61/CD62P). Conditions: for effect on Fc mediated platelet activation (CD62P): anti-platelet agent at various concentrations with 400 μg/ml NM4047. The series is classed as cell-based, human. The method, then: as §1
NM4047 is an IgG1 monoclonal antibody that was identified as a blocker of alternative complement pathway activation. The monoclonal antibody was evaluated for inhibition of complement and cellular activation in a whole blood based extracorporeal circulation model. In this model, whole heparinzed human blood was diluted with plasmalyte and circulated in a PVC tubing loop for 2 h at 37° C. to allow complement activation to occur. A total of 21 tubing loops were prepared. […] Nine tubing loops received 400 μg/ml concentration of NM4047 and the other nine received 100 μg/ml concentration of NM4047. Tubing loops were then rotated for 2 h at 37° C. Following the rotation, aliquots of the blood were stained for flow cytometry for the evaluation of cellular activation. A separate aliquot of blood was centrifuged to separate plasma, which was used for measuring complement activation products in ELISA. […] However, activation of neutrophils, monocytes, and platelets was not inhibited. Cellular activation was evaluated using flow cytometry methods. Aliquots of blood sample were stained with FITC labeled CD15 for neutrophils, FITC labeled CD14 for monocytes, and FITC labeled CD61 for Platelets. The cells were also stained with activation markers PE labeled CD11b for neutrophils and monocytes, and PE labeled CD62P for platelets. The staining was done in three groups, one group containing CD15/CD11b, second group contained CD14/CD11b, and the third group contained CD61/CD62P antibodies. Following staining, the cells were lysed with lysis buffer, centrifuged to pellet the cells. After a quick wash with 1% BSA/PBS, the cells were suspended in 1% paraformaldehyde buffer. Cell populations were read in the BD-LSR 1 and Cell Quest software. The raw data taken from Cell Quest were analyzed using Win List software from Verity, populations were measured using Ln Median shifts in the activation marker in the case of neutrophils and monocytes, and population percentage shifts for platelets. The data was then plotted on MicroCal Origin software. […] The lack of cellular inhibition could only be explained by the fact that the IgG1 had the Fc region. To determine if the predicted Fc is the cause of the observed cellular activation, IgG1 was digested with Ficin protease.
NM4047 (IgG1) monoclonal antibody was evaluated for inhibition of complement and cellular activation in a whole blood based extracorporeal circulation model in the presence of ReoPro. ReoPro is a GPIIbIIIa monoclonal antibody that binds resting and activated platelets. In this experiment, heparinzed human blood was diluted with plasmalyte and circulated in a PVC tubing loop for 2 h at 37° C. to allow complement activation to occur. A total of 21 tubing loops were prepared. […] Nine tubing loops received 400 μg/ml concentration of NM4047 and the other nine received 100 μg/ml concentration of NM4047. All samples other than controls received 10 μg/ml of ReoPro (clinical material). All tubing loops were then rotated for 2 h at 37° C. Following the rotation, aliquots of the blood were stained for flow cytometry for the evaluation of cellular activation. […]

A further series relates to complement activation. In words: Tubing loop model, overall complement activation or inhibition. The series is classed as biochemical, human. Conditions: anti-platelet agent in combination with NM4047. The method, then: as §2, with “activation.” for “activation. A separate aliquot of blood was centrifuged to separate plasma, which was used for measuring complement activation products in ELISA.”
NM4047 (IgG1) monoclonal antibody was evaluated for inhibition of complement and cellular activation in a whole blood based extracorporeal circulation model in the presence of ReoPro. […] Cellular activation was evaluated using flow cytometry methods. […]

The test system of a further series is erythrocytes. Nature of the series: Hemolysis of erythrocytes in tubing loop experiments. The series is classed as cell-based, human. The note with it: high concentration doses; tested at 5-50 μg/ml. From the text:
In this example, we evaluated the effects of Aspirin a commonly used inhibitor of platelet activation. Aspirin is also used as a standard of care for cardiac procedures. […] The tubing loop experiments presented in various examples above remained the same. The only difference was in the type of test agent used across these experiments. While good results were noticed with ReoPro and Aggrastat, the cost of such drugs may be prohibitive. In such cases, aspirin may become a viable option.

Positions of bridges follow the written chain, without caps; N, C: chain ends. Non-standard residues stand in square brackets, D forms with d. Residues, ends and D or L forms follow the SMILES beside them. hArg = N=C(N)NCCCC[C@H](N)C(=O)O; Mpa = O=C(O)CCS

As to `CCCCS(=O)(=O)N[C@@H](Cc1ccc(OCCCCC2CCNCC2)cc1)C(=O)O` [Aggrastat, Tirofiban], the “effect on monocyte activation” value in the series on monocytes is “no effect”. In addition, in the series on neutrophils, the “effect on neutrophil activation” value is recorded as “no effect”. For the same molecule, the “effect on Fc mediated platelet activation (CD62P)” value (“effect … (CD62P)” below) in the series with platelets was “highly potent”. In the series on platelets (with 400 μg/ml NM4047, 1 to 20 μg/ml tested), the “concentration achieving complete inhibition of platelet activation” value worked out at 1 µg/mL.
In the case of `CC(=O)Oc1ccccc1C(=O)O` [Aspirin], the “effect on level of complement inhibition by NM4047” value in the series with complement activation is listed as “did not alter”. In addition, in the series with monocytes, the “effect on monocyte activation” value is recorded as “only partial effect”. In addition, the hemolysis of erythrocytes entry in the series on erythrocytes is “caused hemolysis”. In addition, in the series with neutrophils, the “effect on neutrophil activation” value is “only partial effect”. The “effect … (CD62P)” value in the series with platelets is given as “inhibits”.
On to `N=C(N)NCCCC[C@@H]1NC(=O)CCSSC[C@@H](C(N)=O)NC(=O)[C@@H]2CCCN2C(=O)[C@H](Cc2c[nH]c3ccccc23)NC(=O)[C@H](CC(=O)O)NC(=O)CNC1=O` [Integrillin, Eptifibatide] ([Mpa][hArg]GDWPC-NH2; disulfide 1-7), for which the total platelet activation entry in the series on platelets (Integrillin 100 μg/ml with 400 μg/ml NM4047) is listed as “at least 4 fold”. The “effect … (CD62P)” value in the series with platelets was “does not inhibit”.

B1: Abciximab (antibody, chains of the INN, looked up, V domains shown)
VH: EVQLQQSGTVLARPGASVKMSCEASGYTFTNYWMHWVKQRPGQGLEWIGAIYPGNSDTSYIQKFKGKAKLTAVTSTTSVYMELSSLTNEDSAVYYCTLYDGYYVFAYWGQGTLVTVSA
VL: EIVLTQSPVTLSVTPGDSVSLSCRASRDISNNLHWFQQTSHESPRLLIKYASQSMSGIPSRFSGSGSGTDFTLSINSVETEDFGMYFCQQTNSWPYTFGGGTKLEIK
modifications: Fab
notes: monoclonal F(ab) fragment GPIIb/IIIa antagonist
As for B1, the “effect on level of complement inhibition by NM4047” value in the series with complement activation is reported as “did not affect”. Also, in the series with monocytes, the “effect on monocyte activation” value is on record as “does not inhibit”. Besides, the “effect on neutrophil activation” value in the series on neutrophils is reported as “does not inhibit”. In addition, in the series with platelets (ReoPro 10 μg/ml with NM4047 400 or 100 μg/ml), the “inhibition of platelet activation” value is around 100%. For the same molecule, the “platelet activation in samples containing IgG2 antibody” value in the series on platelets (ReoPro together with IgG2 antibody) is given as “inhibited”. The “effect … (CD62P)” value in the series with platelets was “dose dependent”. In addition, in the series on platelets (with 400 μg/ml NM4047), the “concentration at which effect on platelet inhibition starts to vanish” value was 0.5 µg/mL.

The values are drawn from patent US20110311532A1, “INHIBITION OF COMPLEMENT AND CELLULAR ACTIVATION” (priority 2007, published 2011).
